Assay results: the NIST ThermoML archive (doi:10.1016/j.fluid.2017.06.018)

Columns and labels:
[1] = xn = mol fraction of the nth substance listed; details: 100 kPa, Liquid; for viscosity: Falling or rolling sphere viscometry; for mass density: Vibrating tube method
[2] = refractive index (Na D-line) (dimensionless); xn = mol fraction of the nth substance listed; details: 100 kPa, Liquid, Standard Abbe refractometry

NCCNCCN [di(2-aminoethyl)amine] + NCCO
Details	mass density, 298.15 K [kg/m3]	mass density, 303.15 K [kg/m3]	mass density, 308.15 K [kg/m3]	refractive index, 298.15 K	refractive index, 303.15 K	refractive index, 308.15 K	viscosity, 298.15 K [mPa·s]	viscosity, 303.15 K [mPa·s]	viscosity, 308.15 K [mPa·s]
[1], x2 = 0	945.8	942.1	937.8	–	–	–	5.63	4.5	3.85
[1], x2 = 0.1619	956.5	953.1	949.1	–	–	–	8.28	6.59	5.38
[1], x2 = 0.2973	964.6	961.1	957.1	–	–	–	10.37	8.33	6.68
[1], x2 = 0.4258	972.6	969	965.3	–	–	–	12.15	9.76	7.8
[1], x2 = 0.5307	979.4	975.9	972.3	–	–	–	13.87	11.18	8.89
[1], x2 = 0.6308	986.3	982.8	979.2	–	–	–	15.47	12.48	9.99
[1], x2 = 0.7174	992.7	989.2	985.6	–	–	–	16.82	13.6	10.89
[1], x2 = 0.798	998.7	995.5	992	–	–	–	18.22	14.73	11.84
[1], x2 = 0.879	1005.1	1001.7	998.5	–	–	–	19.23	15.49	12.42
[1], x2 = 0.9336	1008.9	1005.6	1002.4	–	–	–	19.31	15.49	12.34
[2], x2 = 0	–	–	–	1.4822	1.4808	1.4793	–	–	–
[2], x2 = 0.0989	–	–	–	1.4815	1.4802	1.4791	–	–	–
[2], x2 = 0.2021	–	–	–	1.4806	1.4791	1.4778	–	–	–
[2], x2 = 0.3013	–	–	–	1.4794	1.4778	1.4765	–	–	–
[2], x2 = 0.4007	–	–	–	1.4778	1.4764	1.4752	–	–	–
[2], x2 = 0.4984	–	–	–	1.4758	1.4743	1.4729	–	–	–
[2], x2 = 0.6007	–	–	–	1.4731	1.4717	1.4703	–	–	–
[2], x2 = 0.7027	–	–	–	1.4696	1.4683	1.467	–	–	–
[2], x2 = 0.8002	–	–	–	1.4657	1.4643	1.4631	–	–	–
[2], x2 = 0.8987	–	–	–	1.4608	1.4591	1.4577	–	–	–

NCCNCCO [N-(2-aminoethyl)ethanolamine] + NCCO
Details	mass density, 298.15 K [kg/m3]	mass density, 303.15 K [kg/m3]	mass density, 308.15 K [kg/m3]	refractive index, 298.15 K	refractive index, 303.15 K	refractive index, 308.15 K	viscosity, 298.15 K [mPa·s]	viscosity, 303.15 K [mPa·s]	viscosity, 308.15 K [mPa·s]
[1], x2 = 0	1025.8	1021.3	1016.3	–	–	–	98.62	70.57	53.11
[1], x2 = 0.1072	1025.7	1021.4	1016.6	–	–	–	95.09	69.25	52.77
[1], x2 = 0.2634	1025.2	1020.9	1016.2	–	–	–	90.58	67.59	52.68
[1], x2 = 0.4233	1024.4	1020.2	1015.7	–	–	–	78.29	59.5	46.92
[1], x2 = 0.5481	1023.4	1019.3	1014.9	–	–	–	64.72	48.92	38.49
[1], x2 = 0.6305	1022.5	1018.4	1014.1	–	–	–	53.12	39.84	31.01
[1], x2 = 0.6851	1021.7	1017.6	1013.4	–	–	–	44.75	32.81	25.15
[1], x2 = 0.7988	1019.4	1015.5	1011.4	–	–	–	27.93	20.04	14.71
[1], x2 = 0.8459	1018.2	1014.3	1010.3	–	–	–	22.36	15.94	11.31
[1], x2 = 0.9377	1015.2	1011.4	1007.5	–	–	–	17.18	12.82	9.55
[2], x2 = 0	–	–	–	1.4843	1.4827	1.4811	–	–	–
[2], x2 = 0.1005	–	–	–	1.4824	1.481	1.4796	–	–	–
[2], x2 = 0.1993	–	–	–	1.4799	1.4785	1.4771	–	–	–
[2], x2 = 0.299	–	–	–	1.4774	1.476	1.4745	–	–	–
[2], x2 = 0.4047	–	–	–	1.4742	1.4728	1.4715	–	–	–
[2], x2 = 0.5033	–	–	–	1.4714	1.47	1.4685	–	–	–
[2], x2 = 0.5985	–	–	–	1.4683	1.4668	1.4652	–	–	–
[2], x2 = 0.6981	–	–	–	1.4647	1.4633	1.462	–	–	–
[2], x2 = 0.7985	–	–	–	1.4611	1.4598	1.4585	–	–	–
[2], x2 = 0.8996	–	–	–	1.4573	1.4559	1.4545	–	–	–
